This note sets out measurements from PMC11602988 (The Journal of Biological Chemistry, 2024).

Where a chain is given by its changes, count along the chain named. Read-outs that look alike come from different tables or passages of the source.

The target of one assay is T1, OCT1 WT (Homo sapiens, UniProt O15245).
T1 sequence (O15245 1-554): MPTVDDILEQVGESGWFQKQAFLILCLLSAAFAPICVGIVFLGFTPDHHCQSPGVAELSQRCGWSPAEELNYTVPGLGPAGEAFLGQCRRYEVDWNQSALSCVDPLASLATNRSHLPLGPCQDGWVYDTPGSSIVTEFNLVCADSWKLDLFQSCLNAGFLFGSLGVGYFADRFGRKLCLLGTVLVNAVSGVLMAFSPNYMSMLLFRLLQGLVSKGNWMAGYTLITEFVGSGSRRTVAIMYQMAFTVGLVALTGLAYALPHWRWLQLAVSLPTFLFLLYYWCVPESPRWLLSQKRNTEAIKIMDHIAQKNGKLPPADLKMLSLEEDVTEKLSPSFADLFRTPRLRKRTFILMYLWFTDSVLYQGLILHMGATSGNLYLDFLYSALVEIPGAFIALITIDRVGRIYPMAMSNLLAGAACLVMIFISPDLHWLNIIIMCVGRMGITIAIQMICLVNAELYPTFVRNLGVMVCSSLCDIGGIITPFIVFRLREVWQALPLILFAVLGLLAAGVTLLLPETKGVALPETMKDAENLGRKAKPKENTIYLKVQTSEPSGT
The assay can be described thus: Uptake screening (transport ratio over empty vector), HEK293 cells overexpressing OCT1 WT.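 Also: intracellular substrate levels quantified by HPLC–tandem mass spectrometry after uptake in HBSS+ buffer at 37 °C, stable Flp-In HEK293 lines, fold change versus empty vector–transfected cells.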 Set-up: expressed in transfected cells. Type of assay: cell-based.

The target of the next assay is T2, OCT1 Phe244Ala variant (Homo sapiens, UniProt O15245, F244A).
T2 sequence (O15245 1-554 F244A): T1 sequence (O15245 1-554) with F244A
Description: Uptake screening (transport ratio over empty vector), HEK293 cells overexpressing OCT1 Phe244Ala variant.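 Also: stably transfected HEK293 cells, intracellular substrate quantified by HPLC-tandem mass spectrometry in cell lysates, uptake in HBSS+ buffer.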 In kind it is cell-based. Set-up: expressed in transfected cells.

The mark [1] stands for this setting: uptake ratio over empty vector, HEK293 cells overexpressing OCT1 WT.
The mark [2] stands for this setting: Phe244Ala uptake relative to WT.
Setting [3] is: uptake ratio over empty vector, HEK293 cells overexpressing OCT1 Phe244Ala.

Description for OCT1 Phe244Ala variant: (§1) All experiments were carried out using transporter-overexpressing HEK293 cells. […] Cells were cultivated in Dulbecco’s Modified Eagle’s medium supplemented with 10% fetal calf serum, 100 U/ml penicillin, and 100 μg/ml streptomycin. Cells were passaged twice a week and kept in culture for no longer than 30 passages.
(§2) For uptake studies, 300,000 HEK293 cells were plated in each well of 24-well plates precoated with poly-D-lysine 48 prior to the experiment. On the day of the experiment, cells were washed once with prewarmed to 37 °C HBSS+ (Hank’s balanced salt solution supplemented with 10 mM Hepes, both Sigma-Aldrich). […] Uptake was stopped by adding ice-cold HBSS+ and cells were washed twice with ice-cold buffer before cell lysis was done using 80% acetonitrile containing an appropriate internal standard for eventual mass spectrometry. Relative quantification was done by comparison of transporter-overexpressing cells to empty vector–transfected controls. For uptake kinetic experiments, cells were incubated with increasing concentrations of substrate dissolved in HBSS+. Absolute quantification was done later by comparison to a standard curve in lysis buffer with known concentration.
(§3) Intracellular drug concentrations were detected and quantified by HPLC coupled to mass spectrometry. […] Substance-specific conditions were used to adjust the retention times of the analytes.
(§4) Transport ratios were determined as relative fold-increase of the uptake in transporter-overexpressing cells over empty vector–transfected control cells. For transport kinetic experiments, absolute substrate quantification was done by signal comparison to a standard curve with known concentrations. Net uptake was then determined by subtracting the uptake into empty vector–transfected cells from transporter-overexpressing cells. […] Vmax defines the maximum transport velocity, Km refers to the substrate concentration required to reach half vmax. The intrinsic clearance Clint is the ratio of vmax over Km.
Description for OCT1 WT: as §1, §2, §3, §4

With `CC(=O)OC(C)C[N+](C)(C)C` (stereo not drawn) [Acetyl-beta-Methylcholin], at OCT1 WT (setting [1]), the Mean_transport_ratio_WT was determined as 46.311. Further, the relative_Phe244Ala_uptake_in% at OCT1 Phe244Ala variant (setting [2]) is recorded as 14.392%. On OCT1 Phe244Ala variant (setting [3]), the Mean_transport_ratio_Phe244Ala stood at 7.521.

For the molecule `CN(C)CCc1c[nH]c2ccc(CS(=O)(=O)N3CCCC3)cc12` [Almotriptan], the Mean_transport_ratio_WT on OCT1 WT (setting [1]) turned out to be 3.882. In addition, the relative_Phe244Ala_uptake_in% on OCT1 Phe244Ala variant (setting [2]) stood at 113.777%. Also, at OCT1 Phe244Ala variant (setting [3]), the Mean_transport_ratio_Phe244Ala is recorded as 4.279.

Consider `Nc1ccncc1N` [Amifampridine], for which, on OCT1 WT (setting [1]), the Mean_transport_ratio_WT is 4.689. The relative_Phe244Ala_uptake_in% on OCT1 Phe244Ala variant (setting [2]) turned out to be 7.302%. Moreover, the Mean_transport_ratio_Phe244Ala at OCT1 Phe244Ala variant (setting [3]) amounted to 1.269.

As for `N=C(N)NC(=O)c1nc(Cl)c(N)nc1N` [Amiloride], the Mean_transport_ratio_WT at OCT1 WT was determined as 37.597. Further, at OCT1 Phe244Ala variant, the Mean_transport_ratio_Phe244Ala is 23.504 and the relative_Phe244Ala_uptake_in% amounted to 61.492%.

Take `CCN1CCCC1CNC(=O)c1cc(S(=O)(=O)CC)c(N)cc1OC` (stereo not drawn) [Amisulpride]: the Mean_transport_ratio_WT at OCT1 WT (setting [1]) worked out at 8.435. Further, the relative_Phe244Ala_uptake_in% on OCT1 Phe244Ala variant (setting [2]) is on record as 97.893%. Moreover, the Mean_transport_ratio_Phe244Ala at OCT1 Phe244Ala variant (setting [3]) is listed as 8.279.

Regarding `CC[N+](CC)(CC)Cc1ccccc1` [Benzyltriethylammonium], on OCT1 WT (setting [1]), the Mean_transport_ratio_WT turned out to be 56.17. Besides, on OCT1 Phe244Ala variant (setting [2]), the relative_Phe244Ala_uptake_in% is reported as 82.289%. In addition, on OCT1 Phe244Ala variant (setting [3]), the Mean_transport_ratio_Phe244Ala amounted to 46.399.

As for `COc1ccc2cc3[n+](cc2c1OC)CCc1cc2c(cc1-3)OCO2` [Berberine], the Mean_transport_ratio_WT on OCT1 WT (setting [1]) was 11.952. The relative_Phe244Ala_uptake_in% at OCT1 Phe244Ala variant (setting [2]) is 63.219%. Further, the Mean_transport_ratio_Phe244Ala at OCT1 Phe244Ala variant (setting [3]) came to 7.924.

For the molecule `NCC(O)c1ccccc1` (stereo not drawn) [Bisnorephedrine], the Mean_transport_ratio_WT on OCT1 WT (setting [1]) is recorded as 1.295. The relative_Phe244Ala_uptake_in% at OCT1 Phe244Ala variant (setting [2]) turned out to be 116.872%. The Mean_transport_ratio_Phe244Ala at OCT1 Phe244Ala variant (setting [3]) came out at 1.345.

For `CCCCNC(=N)NC(=N)N` [Buformin], on OCT1 WT (setting [1]), the Mean_transport_ratio_WT was determined as 33.648. Besides, the relative_Phe244Ala_uptake_in% on OCT1 Phe244Ala variant (setting [2]) is reported as 42.469%. At OCT1 Phe244Ala variant (setting [3]), the Mean_transport_ratio_Phe244Ala came to 14.865.

On to `CCCC[N+]1(C)[C@@H]2C[C@@H](OC(=O)[C@H](CO)c3ccccc3)C[C@H]1[C@@H]1O[C@@H]12` (stereo partly drawn) [Butylscopolamine], for which the Mean_transport_ratio_WT at OCT1 WT (setting [1]) came out at 24.775. Moreover, the relative_Phe244Ala_uptake_in% on OCT1 Phe244Ala variant (setting [2]) was 125.561%. Further, the Mean_transport_ratio_Phe244Ala on OCT1 Phe244Ala variant (setting [3]) worked out at 30.852.

For `NC(N)=NC(N)=Nc1ccc(Cl)cc1` [CPB], the Mean_transport_ratio_WT on OCT1 WT (setting [1]) worked out at 17.903. The relative_Phe244Ala_uptake_in% on OCT1 Phe244Ala variant (setting [2]) turned out to be 76.322%. On OCT1 Phe244Ala variant (setting [3]), the Mean_transport_ratio_Phe244Ala was found to be 13.901.

Turning to `CN=C(NC#N)NCCSCc1nc[nH]c1C` [Cimetidin], the Mean_transport_ratio_WT at OCT1 WT (setting [1]) was 2.536. The relative_Phe244Ala_uptake_in% at OCT1 Phe244Ala variant (setting [2]) was found to be 103.374%. Also, the Mean_transport_ratio_Phe244Ala at OCT1 Phe244Ala variant (setting [3]) amounted to 2.588.

On to `C[N+]12CCC(CC1)C(OC(=O)C(O)(c1ccccc1)c1ccccc1)C2` (stereo not drawn) [Clidinium], for which, at OCT1 WT (setting [1]), the Mean_transport_ratio_WT stood at 30.863. Also, the relative_Phe244Ala_uptake_in% at OCT1 Phe244Ala variant (setting [2]) is reported as 112.238%. The Mean_transport_ratio_Phe244Ala at OCT1 Phe244Ala variant (setting [3]) came out at 34.518.

In the case of `CC(C)(C)NCC(O)c1ccc(O)c(O)c1` (stereo not drawn) [Colterol], at OCT1 WT (setting [1]), the Mean_transport_ratio_WT was found to be 5.025. On OCT1 Phe244Ala variant (setting [2]), the relative_Phe244Ala_uptake_in% is on record as 33.880%. In addition, at OCT1 Phe244Ala variant (setting [3]), the Mean_transport_ratio_Phe244Ala is 2.364.

On to `c1c2c(cc3c1OCO3)-c1cc3ccc4c(c3c[n+]1CC2)OCO4` [Coptisine], for which the Mean_transport_ratio_WT on OCT1 WT (setting [1]) is given as 12.003. Besides, the relative_Phe244Ala_uptake_in% at OCT1 Phe244Ala variant (setting [2]) turned out to be 90.627%. Also, at OCT1 Phe244Ala variant (setting [3]), the Mean_transport_ratio_Phe244Ala was found to be 10.972.

In the case of `CC1(C)N=C(N)N=C(N)N1c1ccc(Cl)cc1` [Cycloguanil], the Mean_transport_ratio_WT on OCT1 WT (setting [1]) is on record as 17.269. The relative_Phe244Ala_uptake_in% at OCT1 Phe244Ala variant (setting [2]) is recorded as 95.814%. Further, the Mean_transport_ratio_Phe244Ala at OCT1 Phe244Ala variant (setting [3]) stood at 16.588.

Turning to `N=C(N)N1CCc2ccccc2C1` [Debrisoquin], at OCT1 WT (setting [1]), the Mean_transport_ratio_WT is reported as 19.246. The relative_Phe244Ala_uptake_in% on OCT1 Phe244Ala variant (setting [2]) came out at 108.342%. Moreover, the Mean_transport_ratio_Phe244Ala on OCT1 Phe244Ala variant (setting [3]) is listed as 20.768.

With `COc1cc2c(cc1OC)-c1c(C)c3ccc(OC)c(OC)c3c[n+]1CC2` [Dehydrocorydaline], the Mean_transport_ratio_WT at OCT1 WT (setting [1]) is 9.385. Further, the relative_Phe244Ala_uptake_in% on OCT1 Phe244Ala variant (setting [2]) was determined as 100.287%. In addition, the Mean_transport_ratio_Phe244Ala at OCT1 Phe244Ala variant (setting [3]) turned out to be 9.409.
